33 compounds from patent US8173682B2, “Substituted pyridones as inhibitors of poly(ADP-ribose) polymerase (PARP)” (Aventis Pharmaceuticals Inc., priority 2004, dated 2012) can be followed below.

The target in this assay is recombinantly expressed human PARP-1 enzyme (Homo sapiens, UniProt P09874). Description: PARP enzyme assay, Method B (tritium-labeled NAD incorporation). The class given is biochemical. The note with it: Method B; 200 μM NAD, room temperature 1 hour, pH 8.0; read-out: IC50 (μM)/Method B. In a few lines:
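DNA-activated purified recombinant enzyme (2 μg/mL) incubated with test compound for 1 h at room temperature, pH 8.0, with 200 μM NAD plus tritiated NAD, DNA and histones. TCA-precipitated radiolabelled protein collected on glass-fibre filters and counted; IC50 is the concentration halving incorporation versus no-inhibitor control.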

Chain of recombinantly expressed human PARP-1 enzyme (P09874 whole entry): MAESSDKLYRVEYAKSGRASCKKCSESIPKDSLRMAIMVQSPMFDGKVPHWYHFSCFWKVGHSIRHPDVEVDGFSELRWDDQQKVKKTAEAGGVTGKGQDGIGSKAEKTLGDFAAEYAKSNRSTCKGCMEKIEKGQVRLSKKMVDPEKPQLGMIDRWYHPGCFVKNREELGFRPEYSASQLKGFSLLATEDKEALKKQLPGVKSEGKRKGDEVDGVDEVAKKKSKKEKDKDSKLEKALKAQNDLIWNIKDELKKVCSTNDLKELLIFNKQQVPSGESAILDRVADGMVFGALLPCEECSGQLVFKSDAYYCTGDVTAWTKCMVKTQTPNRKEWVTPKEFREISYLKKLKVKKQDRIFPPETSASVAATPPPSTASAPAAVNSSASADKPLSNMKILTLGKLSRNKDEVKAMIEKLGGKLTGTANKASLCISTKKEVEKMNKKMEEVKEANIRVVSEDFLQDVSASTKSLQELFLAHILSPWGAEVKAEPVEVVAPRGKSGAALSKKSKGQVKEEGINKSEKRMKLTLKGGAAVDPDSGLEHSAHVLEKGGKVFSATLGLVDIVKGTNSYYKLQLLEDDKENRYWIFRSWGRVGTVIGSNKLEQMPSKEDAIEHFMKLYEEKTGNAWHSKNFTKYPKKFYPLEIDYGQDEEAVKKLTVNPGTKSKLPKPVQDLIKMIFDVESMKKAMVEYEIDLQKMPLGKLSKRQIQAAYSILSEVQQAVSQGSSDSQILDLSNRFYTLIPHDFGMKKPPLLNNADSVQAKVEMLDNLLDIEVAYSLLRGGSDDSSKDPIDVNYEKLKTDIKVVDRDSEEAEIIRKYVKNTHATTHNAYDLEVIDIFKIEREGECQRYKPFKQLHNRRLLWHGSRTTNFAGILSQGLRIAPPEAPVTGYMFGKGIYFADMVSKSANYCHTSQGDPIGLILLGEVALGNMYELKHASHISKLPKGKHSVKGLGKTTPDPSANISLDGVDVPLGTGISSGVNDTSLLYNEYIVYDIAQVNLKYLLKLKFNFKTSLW

As to `CCc1cc(-c2cncc(C(=O)NCCc3ccc(S(N)(=O)=O)cc3)c2)c(C)[nH]c1=O` [Example 237, 5′-Ethyl-2′-methyl-6′-oxo-1′,6′-dihydro-[3,3′]bipyridinyl-5-carboxylic acid [2-(4-sulfamoyl-phenyl)-ethyl]-amide], the IC50 was found to be 1.34 µM.
As for `CCc1cc(-c2cncc(C(=O)NCCc3ccncc3)c2)c(C)[nH]c1=O` [Example 238, 5′-Ethyl-2′-methyl-6′-oxo-1′,6′-dihydro-[3,3′]bipyridinyl-5-carboxylic acid (2-pyridin-4-yl-ethyl)-amide], the IC50 turned out to be 0.35 µM.
With `CCc1cc(-c2cncc(C(=O)NCCc3ccc(OC)cc3)c2)c(C)[nH]c1=O` [Example 239, 5′-Ethyl-2′-methyl-6′-oxo-1′,6′-dihydro-[3,3′]bipyridinyl-5-carboxylic acid [2-(4-methoxy-phenyl)-ethyl]-amide], the IC50 turned out to be 0.94 µM.
In the case of `CCc1cc(-c2cncc(C(=O)NCCc3cccc(OC)c3)c2)c(C)[nH]c1=O` [Example 240, 5′-Ethyl-2′-methyl-6′-oxo-1′,6′-dihydro-[3,3′]bipyridinyl-5-carboxylic acid [2-(3-methoxy-phenyl)-ethyl]-amide], the IC50 was 3.88 µM.
Take `CCc1cc(-c2cncc(C(=O)NCCN3CCOCC3)c2)c(C)[nH]c1=O` [Example 241, 5′-Ethyl-2′-methyl-6′-oxo-1′,6′-dihydro-[3,3′]bipyridinyl-5-carboxylic acid (2-morpholin-4-yl-ethyl)-amide]: the IC50 was 1.25 µM.
With `CCc1cc(-c2cncc(C(=O)NCCC3CCOCC3)c2)c(C)[nH]c1=O` [Example 242, 5′-Ethyl-2′-methyl-6′-oxo-1′,6′-dihydro-[3,3′]bipyridinyl-5-carboxylic acid [2-(tetrahydro-pyran-4-yl)-ethyl]-amide], the IC50 was 1.79 µM.
Take `CCc1cc(-c2cncc(C(=O)NCCc3ccc(C(=O)O)cc3)c2)c(C)[nH]c1=O` [Example 243, 4-{2-[(5′-Ethyl-2′-methyl-6′-oxo-1′,6′-dihydro-[3,3′]bipyridinyl-5-carbonyl)-amino]-ethyl}-benzoic acid]: the IC50 is 2.29 µM.
Turning to `CCc1cc(-c2cncc(C(=O)NCC(=O)c3ccccc3)c2)c(C)[nH]c1=O` [Example 244, 5′-Ethyl-2′-methyl-6′-oxo-1′,6′-dihydro-[3,3′]bipyridinyl-5-carboxylic acid (2-oxo-2-phenyl-ethyl)-amide], the IC50 was found to be 0.32 µM.
As to `CCc1cc(-c2cncc(C(=O)NCCc3nc4ccccc4[nH]3)c2)c(C)[nH]c1=O` [Example 245, 5′-Ethyl-2′-methyl-6′-oxo-1′,6′-dihydro-[3,3′]bipyridinyl-5-carboxylic acid [2-(1H-benzoimidazol-2-yl)-ethyl]-amide], the IC50 was 1.9 µM.
Turning to `CCc1cc(-c2cncc(C(=O)Nc3ccc(C(C)=O)cc3)c2)c(C)[nH]c1=O` [Example 246, 5′-Ethyl-2′-methyl-6′-oxo-1′,6′-dihydro-[3,3′]bipyridinyl-5-carboxylic acid (4-acetyl-phenyl)-amide], the IC50 came out at 0.64 µM.
The same measure for `CCc1cc(-c2cncc(C(=O)Nc3cccc(OC)c3)c2)c(C)[nH]c1=O` [Example 248, 5′-Ethyl-2′-methyl-6′-oxo-1′,6′-dihydro-[3,3′]bipyridinyl-5-carboxylic acid (3-methoxy-phenyl)-amide]: 0.85 µM; for `CCc1cc(-c2cncc(C(=O)NCCn3c([N+](=O)[O-])cnc3C)c2)c(C)[nH]c1=O` [Example 249, 5′-Ethyl-2′-methyl-6′-oxo-1′,6′-dihydro-[3,3′]bipyridinyl-5-carboxylic acid [2-(2-methyl-5-nitro-imidazol-1-yl)-ethyl]-amide]: 5 µM.
As for `CCc1cc(-c2cncc(C(=O)NCc3nccs3)c2)c(C)[nH]c1=O` [Example 250, 5′-Ethyl-2′-methyl-6′-oxo-1′,6′-dihydro-[3,3′]bipyridinyl-5-carboxylic acid (thiazol-2-ylmethyl)-amide], the IC50 was 0.64 µM.
The value for `CCc1cc(-c2cncc(C(=O)Nc3ccccc3CC(N)=O)c2)c(C)[nH]c1=O` [Example 251, 5′-Ethyl-2′-methyl-6′-oxo-1′,6′-dihydro-[3,3′]bipyridinyl-5-carboxylic acid (2-carbamoylmethyl-phenyl)-amide] was 0.1 µM; that for `CCc1cc(-c2cncc(C(=O)N3CCN(C(=O)C4CC4)CC3)c2)c(C)[nH]c1=O` [Example 252, 5′-(4-Cyclopropanecarbonyl-piperazine-1-carbonyl)-5-ethyl-2-methyl-1H-[3,3′]bipyridinyl-6-one] was 6.1 µM; that for `CCc1cc(-c2cncc(C(=O)NCC(O)c3ccccc3)c2)c(C)[nH]c1=O` (stereo not drawn) [Example 253, 5′-Ethyl-2′-methyl-6′-oxo-1′,6′-dihydro-[3,3′]bipyridinyl-5-carboxylic acid (2-hydroxy-2-phenyl-ethyl)-amide] was 0.49 µM.
For `CCc1cc(-c2cncc(C(=O)NCCN3C(=O)CSC3=O)c2)c(C)[nH]c1=O` [Example 254, 5′-Ethyl-2′-methyl-6′-oxo-1′,6′-dihydro-[3,3′]bipyridinyl-5-carboxylic acid [2-(2,4-dioxo-thiazolidin-3-yl)-ethyl]-amide], the IC50 was determined as 11.7 µM.
In the case of `CCc1cc(-c2cncc(C(=O)NCc3ccc(S(N)(=O)=O)cc3)c2)c(C)[nH]c1=O` [Example 255, 5′-Ethyl-2′-methyl-6′-oxo-1′,6′-dihydro-[3,3′]bipyridinyl-5-carboxylic acid 4-sulfamoyl-benzylamide], the IC50 worked out at 0.28 µM.
Take `CCc1cc(-c2cncc(C(=O)NCC(=O)c3ccc(OC)cc3)c2)c(C)[nH]c1=O` [Example 256, 5′-Ethyl-2′-methyl-6′-oxo-1′,6′-dihydro-[3,3′]bipyridinyl-5-carboxylic acid [2-(4-methoxy-phenyl)-2-oxo-ethyl]-amide]: the IC50 was 0.45 µM.
As to `CCc1cc(-c2cncc(C(=O)NCC3CC(c4ccncc4)=NO3)c2)c(C)[nH]c1=O` (stereo not drawn) [Example 257, 5′-Ethyl-2′-methyl-6′-oxo-1′,6′-dihydro-[3,3′]bipyridinyl-5-carboxylic acid (3-pyridin-4-yl-4,5-dihydro-isoxazol-5-ylmethyl)-amide], the IC50 stood at 0.57 µM.
As for `CCc1cc(-c2cncc(C(=O)Nc3cc(C(C)(C)C)[nH]n3)c2)c(C)[nH]c1=O` [Example 258, 5′-Ethyl-2′-methyl-6′-oxo-1′,6′-dihydro-[3,3′]bipyridinyl-5-carboxylic acid (5-tert-butyl-1H-pyrazol-3-yl)-amide], the IC50 worked out at 0.62 µM.
As to `CCc1cc(-c2cncc(C(=O)Nc3cc(C(C)(C)C)on3)c2)c(C)[nH]c1=O` [Example 259, 5′-Ethyl-2′-methyl-6′-oxo-1′,6′-dihydro-[3,3′]bipyridinyl-5-carboxylic acid (5-tert-butyl-isoxazol-3-yl)-amide], the IC50 was 0.73 µM.
On to `CCc1cc(-c2cncc(C(=O)N[C@H]3CC=CC[C@H]3C(N)=O)c2)c(C)[nH]c1=O` [Example 260, 5′-Ethyl-2′-methyl-6′-oxo-1′,6′-dihydro-[3,3′]bipyridinyl-5-carboxylic acid ((1S,6R)-6-carbamoyl-cyclohex-3-enyl)-amide], for which the IC50 was 0.8 µM.
Turning to `CCc1cc(-c2cncc(C(=O)NCCOC)c2)c(C)[nH]c1=O` [Example 261, 5′-Ethyl-2′-methyl-6′-oxo-1′,6′-dihydro-[3,3′]bipyridinyl-5-carboxylic acid (2-methoxy-ethyl)-amide], the IC50 is 2.07 µM.
With `CCc1cc(-c2cncc(C(=O)NCC3CCC(C#N)CC3)c2)c(C)[nH]c1=O` (stereo not drawn) [Example 262, 5′-Ethyl-2′-methyl-6′-oxo-1′,6′-dihydro-[3,3′]bipyridinyl-5-carboxylic acid (4-cyano-cyclohexylmethyl)-amide], the IC50 was found to be 2.22 µM.
The value for `CCc1cc(-c2cncc(C(=O)NCc3cccc(OC)c3)c2)c(C)[nH]c1=O` [Example 263, 5′-Ethyl-2′-methyl-6′-oxo-1′,6′-dihydro-[3,3′]bipyridinyl-5-carboxylic acid 3-methoxy-benzylamide] was 2.67 µM; that for `CCc1cc(-c2cncc(C(=O)NCCc3ccccn3)c2)c(C)[nH]c1=O` [Example 264, 5′-Ethyl-2′-methyl-6′-oxo-1′,6′-dihydro-[3,3′]bipyridinyl-5-carboxylic acid (2-pyridin-2-yl-ethyl)-amide] was 3.14 µM; that for `CCc1cc(-c2cncc(C(=O)NCc3ccc(O)c(OC)c3)c2)c(C)[nH]c1=O` [Example 265, 5′-Ethyl-2′-methyl-6′-oxo-1′,6′-dihydro-[3,3′]bipyridinyl-5-carboxylic acid 4-hydroxy-3-methoxy-benzylamide] was 4.1 µM.
`CCc1cc(-c2ccc(C(C)O)o2)c(C)[nH]c1=O` (stereo not drawn) [Example 268, 3-Ethyl-5-[5-(1-hydroxy-ethyl)-furan-2-yl]-6-methyl-1H-pyridin-2-one]: the IC50 turned out to be 1.8 µM.
The same measure for `CCc1cc(-c2ccc(CNC(=O)C3CCCC3)o2)c(C)[nH]c1=O` [Example 269, Cyclopentanecarboxylic acid [5-(5-ethyl-2-methyl-6-oxo-1,6-dihydro-pyridin-3-yl)-furan-2-ylmethyl]-amide]: 1.97 µM; for `CCc1cc(-c2ccc(CNC(=O)Cc3ccccc3)o2)c(C)[nH]c1=O` [Example 270, N-[5-(5-Ethyl-2-methyl-6-oxo-1,6-dihydro-pyridin-3-yl)-furan-2-ylmethyl]-2-phenyl-acetamide]: 1.18 µM.
With `CCc1cc(-c2ccc(CNC(=O)c3ccccc3)o2)c(C)[nH]c1=O` [Example 271, N-[5-(5-Ethyl-2-methyl-6-oxo-1,6-dihydro-pyridin-3-yl)-furan-2-ylmethyl]-benzamide], the IC50 was 0.5 µM.
As for `CCc1cc(-c2ccc(CNC(=O)c3ccc(OC)cc3)o2)c(C)[nH]c1=O` [Example 272, N-[5-(5-Ethyl-2-methyl-6-oxo-1,6-dihydro-pyridin-3-yl)-furan-2-ylmethyl]-4-methoxy-benzamide], the IC50 amounted to 0.44 µM.
